# From article PMC4492822 (EMBO Molecular Medicine, 2015)
# How the values were obtained:
# H3255 cells = test: Immunoblotting of MAPK pathway proteins; format: cell-based; conditions: 7.5 μM or 10 μM, 24 h
# Protocol: Cell lysate was prepared with TB buffer method. For immunoblotting, ~25 μg protein was loaded on 10% SDS–PAGE gels. […] The blots were developed with clarity Western ECL (Bio-Rad, Hercules, CA, USA) and imaged with G:BOX Chemi XR5 (Syngene, Frederick, MD, USA).
# [1] = system: TCF4 activity in H1299 cells; test: TCF reporter assay (TOP/FOP-FLASH); format: cell-based; conditions: 0, 1, 2, and 3 μM; wild-type and β-catenin-overexpressing cells
# Protocol: (§1) Transcriptional activity of TCF4 was assayed using the dual luciferase assay (Promega, Madison, WI, USA) according to the manufacturer's instructions. Briefly, 1.5 × 10^4 A549 or H1299 cells were transfected with 500 ng of TOP-FLASH and control FOP-FLASH constructs along with 50 ng of phRL Renilla constructs as transfection controls as well as with 500 ng β-catenin constructs when indicated. Cells were cultured for 24 h and then lysed in passive lysis buffer. Luminescence was detected using a luminometer (Berthold Sirius, Oak Ridge, TN, USA). Relative TCF4 promoter activity was calculated by dividing firefly luminescence by Renilla luminescence, and then normalized TOP-FLASH was divided by normalized FOP-FLASH, which was finally normalized to vector or DMSO control cells. All experiments were repeated three times, and differences were assessed by the paired t-test.
# [2] = system: Twist1/Kras^G12D lung tumors; test: Twist1/KrasG12D lung tumor model, fractionated radiation (10 fractions of 3 Gy); format: in vivo, mouse; conditions: 3 weeks following treatment
# Protocol: Inducible Twist1/Kras^G12D transgenic mice in the FVB/N inbred background were of the genotype: CCSP-rtTA/tetO-KrasG12D/Twist1-tetO-luc (Tran et al, [2012]). All the mice were weaned 3–4 weeks of age and then placed on dox at 4–6 weeks of age. Mice were treated with similar levels of tumor burden per micro-CT and were typically 20–30 weeks old. Mice were treated as in Fig6C and H. Each group consisted of mice, of which multiple index tumors were followed in time by micro-CT and quantified by a board-certified radiation oncologist (JZ) in a blinded fashion. Bi-dimensional measurements were made on tumors using serial examinations and tumor volumes calculated using the equation Volume = π/6 × 1.65 (length × width) × 3/2. Volumes were normalized to the starting volume, t = 0 before treatment. For 15-Gy SABR experiments, the breakdown of animal usage is (1) RT = 3 female mice, (2) RK-33 = 3 females and 1 male mice, (3) carboplatin = 3 male mice, (4) RT + carboplatin = 3 female mice, and (5) RT + RK-33 = 5 female mice. […]
# The mice underwent micro-CT imaging by use of the Small Animal Radiation Research Platform (SARRP) irradiator described earlier (Wong et al, [2008]). […] Tumor volumes were quantified from the CT dataset with Pinnacle3 software v.8.1y (Philips Inc, Madison, WI) as described previously (Tran et al, [2011]; Zeng et al, [2013]). […]
# DDX3 = DDX3 (Homo sapiens, UniProt O00571); test: Biotin bead pull-down assay with biotinylated RK-33 (AK-298, SK-153), immunoblot; format: binding; conditions: biotinylated RK-33 molecules, 10 μM
# Protocol: (§2) Mean from 3 replicates with SD. • J, K Colony-forming assay of A549 and H3255 cells treated with RK-33 and with various doses of radiation 4 h later. Curves were fitted with a quadratic polynomial equation. Mean from 2 replicates with SD. P-values were determined by the extra sum of squares F-test. Source data are available online for this figure.
# (§3) Two plates of 70% confluent cells were lysed with IP lysis buffer (Tris–HCl (pH 7.4) 25 mM, NaCl 150 mM, EDTA 1 mM, NP-40 1%, glycerol 5%, protease inhibitor). […] Streptavidin beads were added and incubated for 1 h at room temperature. The biotin-bead–RK-33 complex was extracted with a magnetic stand and washed seven times with PBS. Proteins were analyzed by immunoblot.
# A549 cells = test: 53BP1 and γH2AX foci after radiation (immunofluorescence); format: cell-based, human; conditions: 6 μM, 12 h before 2-Gy radiation
# Protocol: A549 cells were allowed to attach overnight in chamber slides. For DDR experiments (Fig6A), cells were incubated with RK-33 for 12 h and then radiated with 2 Gy. After 0, 1, 6, and 24 h, cells were fixed and stained. Cells were fixed for 15 min in 4% formalin, washed with PBS, permeabilized (PBS containing 0.2% Triton X-100) for 5 min, and blocked for 30 min with 10% goat serum. […] Next, cells were washed with PBS and incubated with secondary antibodies, CY3 (1:200, goat anti-mouse, 115-165-071, Jackson Immuno Research) or Alexa fluor 488 (1:200, goat anti-rabbit, A11034, Invitrogen) for 1 h. Cells were washed, nuclei-stained with 4′,6-diamidino-2-phenylindole (DAPI), and cover-slipped. Photographs were taken with Nikon Eclipse 80i fluorescence microscope using a CoolSnap ES camera (Roper scientific, Sarasota, FL, USA).
# DDX5 = molecular target: T1, DDX5 (Homo sapiens, UniProt P17844); test: Biotin bead pull-down assay with biotinylated RK-33, immunoblot; format: binding; conditions: biotinylated RK-33 molecules, 10 μM
# T1 construct: Two plates of 70% confluent cells were lysed with IP lysis buffer; endogenous in cells
# Protocol: as §2, §3
# [3] = system: TCF4 activity in A549 cells; test: TCF reporter assay (TOP/FOP-FLASH); format: cell-based, human; conditions: 0, 1, 2, and 3 μM; wild-type and β-catenin-overexpressing cells
# Protocol: as §1
# [4] = system: A549 human lung cancer cells; test: Orthotopic A549 lung cancer model with radiation; format: in vivo, athymic NCr-nu/nu mice; conditions: i.p. RK-33 with radiation, schedule as Fig6C
# Protocol: Athymic NCr-nu/nu female mice 4–5 weeks old were purchased from NCI Frederick. A total of 1 × 10^6 A549 cells were injected in the tail vein of ten mice. Treatment (five animals per group) was started 4 weeks after inoculation of tumor cells. Since tumor volumes could not be determined by micro-CT, tumor burden was established at necropsy by histopathology, 8 weeks after inoculation of tumor cells. All five lung lobes were paraffin-embedded and mid-lung sections were stained with H&E. Slides were digitalized; lung and tumor surface area was calculated with ImageScope (Aperio Technologies, Vista, CA, USA), as tumor burden = tumor surface/lung surface.
# Cells were irradiated at room temperature with 0.5 Gy/min to the desired dose using a Gammacell 40 ^137Cs irradiator. For in vivo experiments, mice were treated using the Small Animal Radiation Research Platform (Wong et al, [2008]). The tumors were irradiated with a circular beam of 1 cm diameter.
# DDX3, sequence (O00571 2-582): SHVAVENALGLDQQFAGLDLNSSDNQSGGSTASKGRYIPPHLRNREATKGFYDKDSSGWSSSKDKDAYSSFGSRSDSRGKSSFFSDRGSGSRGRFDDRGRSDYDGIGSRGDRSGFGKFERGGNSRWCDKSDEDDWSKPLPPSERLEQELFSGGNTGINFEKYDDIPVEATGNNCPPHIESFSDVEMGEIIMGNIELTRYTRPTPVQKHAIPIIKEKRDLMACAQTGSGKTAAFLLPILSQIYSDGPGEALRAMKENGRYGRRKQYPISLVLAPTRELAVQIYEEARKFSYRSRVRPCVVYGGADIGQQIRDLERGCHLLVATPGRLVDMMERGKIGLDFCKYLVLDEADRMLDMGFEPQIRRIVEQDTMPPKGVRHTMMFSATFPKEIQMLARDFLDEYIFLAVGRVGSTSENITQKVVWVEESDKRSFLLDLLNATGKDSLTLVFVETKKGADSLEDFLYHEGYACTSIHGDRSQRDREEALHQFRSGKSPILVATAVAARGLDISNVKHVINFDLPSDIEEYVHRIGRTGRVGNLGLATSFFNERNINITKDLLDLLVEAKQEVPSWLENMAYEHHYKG
# T1 sequence (P17844 whole entry): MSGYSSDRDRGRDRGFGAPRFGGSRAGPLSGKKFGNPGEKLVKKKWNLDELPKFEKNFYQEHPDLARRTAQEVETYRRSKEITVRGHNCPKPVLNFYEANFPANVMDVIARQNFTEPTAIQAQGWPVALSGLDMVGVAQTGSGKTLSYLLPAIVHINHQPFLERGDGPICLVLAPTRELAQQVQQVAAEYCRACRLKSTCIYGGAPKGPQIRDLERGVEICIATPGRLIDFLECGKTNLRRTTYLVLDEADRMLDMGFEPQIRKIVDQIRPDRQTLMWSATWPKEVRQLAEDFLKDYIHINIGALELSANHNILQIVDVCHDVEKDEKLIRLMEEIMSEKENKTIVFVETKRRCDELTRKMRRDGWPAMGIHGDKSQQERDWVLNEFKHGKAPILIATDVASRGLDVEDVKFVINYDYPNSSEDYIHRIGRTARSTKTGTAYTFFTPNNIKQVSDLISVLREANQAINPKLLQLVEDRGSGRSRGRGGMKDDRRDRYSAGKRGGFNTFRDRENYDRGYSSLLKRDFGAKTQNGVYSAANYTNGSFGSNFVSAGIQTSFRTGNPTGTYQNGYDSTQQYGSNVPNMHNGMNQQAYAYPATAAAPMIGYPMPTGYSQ
substance,measurement,setting,value
"diimidazo[4,5-d:4′,5′-f]-[1,3]diazepine [RK-33]",ERK1/2 phosphorylation,H3255 cells,increase of ERK1/2 phosphorylation
same,TCF activity,[1],reduced TCF activity significantly
same,"decrease in tumor growth, RK-33 and radiation versus radiation",[2],not significant
same,binding to DDX3 in pull-down,DDX3,binds specifically to DDX3
same,persistence of radiation-induced DNA damage (53BP1 and γ-H2AX foci),A549 cells,DNA damage persisted well beyond 24 h
same,binding to DDX5 in pull-down,DDX5,not to the closely related proteins DDX5 and DDX17
same,TCF activity,[3],reduced TCF activity significantly
same,enhancement of radiation-induced tumor regression (tumor burden),[4],2.6 fold
